Assay results as given in PubChem BioAssay AID2060491 (Molecular Pharmacology Branch, DTP, NCI, 2025).

System: 857933-349-R-J2-PDC complex spheroids, viability
Test: Anticancer human tumor 857933-349-R-J2-PDC patient-derived colon adenocarcinoma cell line growth inhibition [GQUAD]
Settings: for IC50: curve of first compound; for viability, T/C: stronger effect = lower value
From the text: DNA G-quadruplex Stabilizer Agents in Combinations in Complex Spheroids
A high-throughput screen of multi-cell type tumor spheroids was designed to identify active combinations of DNA G-quadruplex stabilizer agents and targeted small molecules. Complex spheroids include a stromal component modeled by human endothelial cells (HUVEC) and fibroblasts modeled by human mesenchymal stem cells (MSCs). The concentration ranges selected for each drug and investigational agent were based upon clinically achievable concentrations if the clinical Cmax of the agent was known.
Compounds. The drugs and investigational agents: pidnarulex (CX-5461; NSC782164), APTO-253 (NSC789042), BRACO-19 (NSC847499), peposertib (NSC802822), ceralasertib (NSC780249), elimusertib (NSC800525), camonsertib (NSC841442), AZD-1390 (NSC803789), olaparib (NSC753686), talazoparib (NSC767125), ART-558 (NSC835418), sotorasib (NSC818433), MRTX-1133 (NSC836407), SN-38 (NSC673596), topotecan (NSC609699), etoposide (NSC141540), doxorubicin (NSC123127), gemcitabine (NSC613327), 5-fluorouracil (NSC19893), paclitaxel (NSC125973), vemurafenib (NSC761431), panobinostat (NSC761190), R-306465 (JNJ-16241199; NSC773264), adavosertib (NSC754352), TP-3654 (NSC805149), carboplatin (NSC241240), KSQ-4279 (NSC840948), and staurosporine (NSC755774) were obtained from the National Cancer Institute (NCI) Developmental Therapeutics Program Chemical Repository (34). The FDA-approved anticancer drug set is available from the NCI Developmental Therapeutics Program. […] The stock solutions were prepared in dimethyl sulfoxide (DMSO, Sigma-Aldrich, St. Louis, MO, cat. D2650) at 800-fold the tested concentration and stored at -70 degrees C prior to their use. All drugs and investigational agents were tested over a range starting from a high concentration at or near the clinical Cmax and decreasing in half-log increments. If the clinical Cmax for an agent had not been determined, the highest concentration tested was 10 microM.
2.3 Cell Culture. All cells were maintained in an incubator at 37 degrees C and 5% CO2 with 95% humidity. The PDC lines were cultured according to standard operating procedures established by the NCI PDMR. All PDCs were thawed and cultured in Matrigel-coated flasks prepared with a working solution of 1X Ham's F-12 nutrient mix, without supplementation (Invitrogen, cat. 11765054), 100 U/mL penicillin-streptomycin (Invitrogen, cat. 15140122), and 2.5% Matrigel (Corning Inc., cat. 354248) for the first three passages. The 857933-349-R-J2-PDC line was cultured in 6C/Colon 1B media, which includes advanced DMEM/F-12 (Thermo Fisher Scientific, cat. 12634028), 10 mM HEPES (Thermo Fisher Scientific, cat. 15630080), 1X GlutaMAX supplement (Thermo Fisher Scientific, cat. 35050061), 0.1 mg/mL primocin (InvivoGen, cat. ant-pm-2), 10% defined fetal bovine serum, heat inactivated (HyClone Laboratories Inc., cat. SH30070.03HI), 50% L-WRN conditioned media (ATCC, cat. CRL-3276), 1.25 mM N-Acetyl-L-cysteine (Sigma-Aldrich, cat. A9165), 10 mM nicotinamide (Sigma-Aldrich, cat. N0636), 1X B-27 supplement (Thermo Fisher Scientific, cat. 17504044), 1X N-2 supplement (Thermo Fisher Scientific, cat. 17502048), 10 microM Y-27632 dihydrochloride (Tocris Bioscience, cat. 1254), and 50 ng/mL human EGF recombinant protein (Thermo Fisher Scientific, cat. PHG0311). The 485176-168-R4-J1-PDC line was cultured in Panc media, which includes all 6C/Colon 1B media components plus 100 ng/mL human FGF-10 (Thermo Fisher Scientific, cat. 100-26), 500 nM SB-431542 (Selleckchem, cat. S1067), and gastrin (Tocris, cat. 3006).
[…]

[1] = second compound 0.0316 µM, first compound 0.0316 µM
[2] = second compound 0.0316 µM, first compound 0.1 µM
[3] = second compound 0.0316 µM, first compound 0.316 µM
[4] = second compound 0.0316 µM, first compound 1 µM
[5] = second compound 0.0316 µM, first compound 3.16 µM
[6] = second compound 0.0316 µM, first compound 10 µM
[7] = second compound 0.1 µM, first compound 0.0316 µM
[8] = second compound 0.1 µM, first compound 0.1 µM
[9] = second compound 0.1 µM, first compound 0.316 µM
[10] = second compound 0.1 µM, first compound 1 µM
[11] = second compound 0.1 µM, first compound 3.16 µM
[12] = second compound 0.1 µM, first compound 10 µM
[13] = second compound 0.316 µM, first compound 0.0316 µM
[14] = second compound 0.316 µM, first compound 0.1 µM
[15] = second compound 0.316 µM, first compound 0.316 µM
[16] = second compound 0.316 µM, first compound 1 µM
[17] = second compound 0.316 µM, first compound 3.16 µM
[18] = second compound 0.316 µM, first compound 10 µM
[19] = second compound 1 µM, first compound 0.0316 µM
[20] = second compound 1 µM, first compound 0.1 µM
[21] = second compound 1 µM, first compound 0.316 µM
[22] = second compound 1 µM, first compound 1 µM
[23] = second compound 1 µM, first compound 3.16 µM
[24] = second compound 1 µM, first compound 10 µM
[25] = second compound 3.16 µM, first compound 0.0316 µM
[26] = second compound 3.16 µM, first compound 0.1 µM
[27] = second compound 3.16 µM, first compound 0.316 µM
[28] = second compound 3.16 µM, first compound 1 µM
[29] = second compound 3.16 µM, first compound 3.16 µM
[30] = second compound 3.16 µM, first compound 10 µM
[31] = second compound 10 µM, first compound 0.0316 µM
[32] = second compound 10 µM, first compound 0.1 µM
[33] = second compound 10 µM, first compound 0.316 µM
[34] = second compound 10 µM, first compound 1 µM
[35] = second compound 10 µM, first compound 3.16 µM
[36] = second compound 10 µM, first compound 10 µM
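Also: spheroids exposed to compounds for one week before readout.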
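For viability, T/C in this document: percent viability relative to vehicle DMSO wells taken as 100%.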

## COc1ccc([C@@H](O)c2cc(-c3ncnc4cc(N5CCOCC5)ccc34)c(F)cc2Cl)nn1 + CN(C)c1ccc(Nc2c3ccc(NC(=O)CCN4CCCC4)cc3nc3cc(NC(=O)CCN4CCCC4)ccc23)cc1
Second compound 0.0316 µM
  IC50: > 10 µM
Second compound 0.1 µM
  IC50: > 10 µM
Second compound 0.316 µM
  IC50: > 10 µM
Second compound 1 µM
  IC50: > 10 µM
Second compound 3.16 µM
  IC50: > 10 µM
Second compound 10 µM
  IC50: > 10 µM
[1]
  viability, T/C: 110%
[2]
  viability, T/C: 99.5%
[3]
  viability, T/C: 101%
[4]
  viability, T/C: 93.3%
[5]
  viability, T/C: 82.5%
[6]
  viability, T/C: 61%
[7]
  viability, T/C: 106%
[8]
  viability, T/C: 101%
[9]
  viability, T/C: 103%
[10]
  viability, T/C: 94.2%
[11]
  viability, T/C: 80.9%
[12]
  viability, T/C: 60.1%
[13]
  viability, T/C: 102%
[14]
  viability, T/C: 101%
[15]
  viability, T/C: 99.1%
[16]
  viability, T/C: 85.8%
[17]
  viability, T/C: 83.6%
[18]
  viability, T/C: 58.2%
[19]
  viability, T/C: 98.8%
[20]
  viability, T/C: 91.2%
[21]
  viability, T/C: 99.3%
[22]
  viability, T/C: 85.4%
[23]
  viability, T/C: 79%
[24]
  viability, T/C: 62.4%
[25]
  viability, T/C: 85.2%
[26]
  viability, T/C: 85.9%
[27]
  viability, T/C: 91.5%
[28]
  viability, T/C: 77.8%
[29]
  viability, T/C: 69.5%
[30]
  viability, T/C: 57.1%
[31]
  viability, T/C: 73.5%
[32]
  viability, T/C: 77.9%
[33]
  viability, T/C: 70.4%
[34]
  viability, T/C: 72.5%
[35]
  viability, T/C: 63.4%
[36]
  viability, T/C: 54.8%

## O=C(c1cc(Cc2n[nH]c(=O)c3ccccc23)ccc1F)N1CCN(C(=O)C2CC2)CC1 + CN(C)c1ccc(Nc2c3ccc(NC(=O)CCN4CCCC4)cc3nc3cc(NC(=O)CCN4CCCC4)ccc23)cc1
Second compound 0.0316 µM
  IC50: > 10 µM
Second compound 0.1 µM
  IC50: > 10 µM
Second compound 0.316 µM
  IC50: > 10 µM
Second compound 1 µM
  IC50: > 10 µM
Second compound 3.16 µM
  IC50: > 10 µM
Second compound 10 µM
  IC50: > 10 µM
[1]
  viability, T/C: 111%
[2]
  viability, T/C: 99.1%
[3]
  viability, T/C: 108%
[4]
  viability, T/C: 98.8%
[5]
  viability, T/C: 106%
[6]
  viability, T/C: 107%
[7]
  viability, T/C: 109%
[8]
  viability, T/C: 104%
[9]
  viability, T/C: 100%
[10]
  viability, T/C: 104%
[11]
  viability, T/C: 99.8%
[12]
  viability, T/C: 108%
[13]
  viability, T/C: 103%
[14]
  viability, T/C: 99.3%
[15]
  viability, T/C: 103%
[16]
  viability, T/C: 98.4%
[17]
  viability, T/C: 109%
[18]
  viability, T/C: 107%
[19]
  viability, T/C: 96%
[20]
  viability, T/C: 95.6%
[21]
  viability, T/C: 104%
[22]
  viability, T/C: 93.7%
[23]
  viability, T/C: 109%
[24]
  viability, T/C: 98.5%
[25]
  viability, T/C: 91.2%
[26]
  viability, T/C: 82%
[27]
  viability, T/C: 91.2%
[28]
  viability, T/C: 84%
[29]
  viability, T/C: 93.4%
[30]
  viability, T/C: 91.8%
[31]
  viability, T/C: 73.1%
[32]
  viability, T/C: 76.3%
[33]
  viability, T/C: 75.4%
[34]
  viability, T/C: 73.2%
[35]
  viability, T/C: 80.5%
[36]
  viability, T/C: 81.5%
